Earlier results in patent publication US12171873B2, “Devices and methods for delivery of substances to animals” (Ruminant Biotech Corp Limited, priority 2020, dated 2024).

Legend:
[1] = slaughtered steers, after 48 hour with holding period
[2] = in vivo

Structure (SMILES): BrC(Br)Br [Bromoform, bromoform]
- residues in meat and tissue [1]: no residues
- level in milk [2]: no significant increase
